Measurements published in patent publication US4229477A, “Pharmaceutical compositions containing bromhexine and method of treating diabetic nephropathy therewith” (Boehringer Ingelheim GmbH, priority 1978, dated 1980).

Assays:
glycoprotein metabolism [1] = assay: Effect of bromhexine on glycoprotein metabolism: urinary excretion of carbohydrate-containing material, diabetics; assay type: in vivo, humans
Description: (§1) The effect of N-(2-amino-3,5-dibromo-benzyl)-N-methyl-cyclohexylammonium chloride (Bromhexine) on glycoprotein metabolism was determined as follows:
(§2) 24 hour collections were made from 8 normal healthy humans (4 women and 4 men) and 8 diabetics (1 woman and 7 men) before and after a 3 to 4 week period of treating each subject orally 3 times with 24 mg of bromhexine. A 20% by volume aliquot was taken from each urine specimen and freeze-dried.
(§3) The dried material (ca 1 gm) was dissolved in the minimum quantity of distilled water and the solution was chromatographed with water on a Sephadez G-50 column (length: 148 cm; diameter: 3.4 cm). The carbohydrate-containing fraction was collected and subjected to ultrafiltration using a UM-05 membrane (Amicon Ultrafiltration Cell-Model 202). The filtrate obtained was again freeze-dried.
(§4) The dried material (ca 1 mg) was analyzed for carbohydrate, using gas-liquid chromatography. In this procedure, the sample, together with internal standards, was first subjected to methanolysis with 1.0 M HCl in dry methanol (0.5 ml) for 24 hours at 85° C. The resulting solution was neutralized and then treated with acetic acid anhydride (0.05 ml) for 6 hours. On completion of the treatment the solution obtained was centrifuged, and the supernatant liquid was transferred to a clean flask, dried and stored in a dessicator. When required for gas chromatography, the dried material was triturated with a trimethylsilylating mixture, and the resulting trimethylsilyl ethers of the methyl glycosides were subjected to gas chromatography (140°-200° C. at 0.5° C./min.).
5 patients were maintained on insulin, 2 on oral hypoglycemic agents and 1 on diet alone. Diabetic treatment was not changed during the study. 3 patients suffered varying degrees of retinopathy, 1 had ischaemic heart disease and 1 had intermittent proteinuria.

mice = settings: British Pat. No. 968,254; cited from earlier work
glycoprotein metabolism [2] = assay: Effect of bromhexine on glycoprotein metabolism: urinary excretion of carbohydrate-containing material, healthy subjects; assay type: in vivo, humans; settings: after treatment
Description: as §1, §2, §3, §4

[3] = healthy subjects, oral, 3 times 24 mg, 3 to 4 weeks, before 121

CN(Cc1cc(Br)cc(Br)c1N)C1CCCCC1 [N-(2-amino-3,5-dibromo-benzyl)-N-methyl-cyclohexylamine]
proportion of saccharide and glycopeptide excreted (glycoprotein metabolism [1]; diabetics, 15 to 30 mg, 3 to 4 times per day): strongly reduced to levels equivalent to those of a normal healthy subject

CN(Cc1cc(Br)cc(Br)c1N)C1CCCCC1.Cl [bromhexine, N-(2-amino-3,5-dibromo-benzyl)-N-methyl-cyclohexylammonium chloride]
excretion of carbohydrate-containing material (glycoprotein metabolism [1]; diabetic subjects, after treatment): considerable decrease | 24 - Hour Volume (glycoprotein metabolism [1]; diabetics, after treatment, oral, 3 times 24 mg, 3 to 4 weeks, 24 hour urine, before 1,694): 1,686 ml | Fraction dry weight (glycoprotein metabolism [1]; diabetics, after treatment, oral, 3 times 24 mg, 3 to 4 weeks, before 8.7): 6.1 gm | Total dry weight (glycoprotein metabolism [1]; diabetics, after treatment, oral, 3 times 24 mg, 3 to 4 weeks, before 102.6): 110.7 gm | Carbohydrate content: N-Acetylneuraminic acid (glycoprotein metabolism [1]; diabetics, after treatment, oral, 3 times 24 mg, 3 to 4 weeks, before 195): 145 μMol/24 hours | Carbohydrate content: Mannose (glycoprotein metabolism [1]; diabetics, after treatment, oral, 3 times 24 mg, 3 to 4 weeks, before 205): 121 μMol/24 hours | Carbohydrate content: Fucose (glycoprotein metabolism [1]; diabetics, after treatment, oral, 3 times 24 mg, 3 to 4 weeks, before 259): 203 μMol/24 hours | Carbohydrate content: N-Acetylgalactosamine (glycoprotein metabolism [1]; diabetics, after treatment, oral, 3 times 24 mg, 3 to 4 weeks, before 264): 176 μMol/24 hours | Carbohydrate content: N-Acetylglucosamine (glycoprotein metabolism [1]; diabetics, after treatment, oral, 3 times 24 mg, 3 to 4 weeks, before 313): 181 μMol/24 hours | Carbohydrate content: Galactose (glycoprotein metabolism [1]; diabetics, after treatment, oral, 3 times 24 mg, 3 to 4 weeks, before 616): 383 μMol/24 hours | Carbohydrate content: Glucuronic acid (glycoprotein metabolism [1]; diabetics, after treatment, oral, 3 times 24 mg, 3 to 4 weeks, before 1,854): 987 μMol/24 hours | Carbohydrate content: Glucose (glycoprotein metabolism [1]; diabetics, after treatment, oral, 3 times 24 mg, 3 to 4 weeks, before 12,609): 7,241 μMol/24 hours | animals died (acute oral toxicity) (mice): 0 out of 10 | 24 - Hour Volume (glycoprotein metabolism [2]; healthy subjects, oral, 3 times 24 mg, 3 to 4 weeks, 24 hour urine, before 1,281): 1,406 ml | Fraction dry weight (glycoprotein metabolism [2]; healthy subjects, oral, 3 times 24 mg, 3 to 4 weeks, before 4.2): 4.4 gm | Total dry weight (glycoprotein metabolism [2]; healthy subjects, oral, 3 times 24 mg, 3 to 4 weeks, before 36.3): 44.0 gm | Carbohydrate content: N-Acetylneuraminic acid (glycoprotein metabolism [2]; healthy subjects, oral, 3 times 24 mg, 3 to 4 weeks, before 94): 147 μMol/24 hours | Carbohydrate content: Fucose (glycoprotein metabolism [2]; [3]): 224 μMol/24 hours | Carbohydrate content: Mannose (glycoprotein metabolism [2]; [3]): 169 μMol/24 hours | Carbohydrate content: N-Acetylgalactosamine (glycoprotein metabolism [2]; healthy subjects, oral, 3 times 24 mg, 3 to 4 weeks, before 139): 196 μMol/24 hours | Carbohydrate content: N-Acetylglucosamine (glycoprotein metabolism [2]; healthy subjects, oral, 3 times 24 mg, 3 to 4 weeks, before 204): 287 μMol/24 hours | Carbohydrate content: Galactose (glycoprotein metabolism [2]; healthy subjects, oral, 3 times 24 mg, 3 to 4 weeks, before 258): 364 μMol/24 hours | Carbohydrate content: Glucose (glycoprotein metabolism [2]; healthy subjects, oral, 3 times 24 mg, 3 to 4 weeks, before 329): 425 μMol/24 hours | Carbohydrate content: Glucuronic acid (glycoprotein metabolism [2]; healthy subjects, oral, 3 times 24 mg, 3 to 4 weeks, before 1,085): 1,573 μMol/24 hours | urinary excretion of carbohydrate-containing material (glycoprotein metabolism [2]; normal subjects): insignificant rise
